ChEMBL document CHEMBL1201862, “PubChem BioAssay data set” (2004)
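In this assay, cells in 96-well plates receive the compound at five concentrations for 48 hours. Endpoints are linearly interpolated between the surrounding concentrations. At the GI50, growth is halved.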 Activity calls are given as the source filed them. Cut-off read from the data, not from the text of the source: active = GI50 up to about 1.1 µM and inactive = higher.

How the values were obtained:
Assay in all cases: inhibition of tumour cell growth, NCI panel, 48 h
LOX IMVI = tested on: LOX IMVI
IGROV-1 = tested on: IGROV-1
CCRF-CEM = tested on: CCRF-CEM
MOLT-4 = tested on: MOLT-4
SF-539 = tested on: SF-539
SN12C = tested on: SN12C
SK-MEL-2 = tested on: SK-MEL-2
SK-MEL-5 = tested on: SK-MEL-5
K562 = tested on: K562
Malme-3M = tested on: Malme-3M
RPMI-8226 = tested on: RPMI-8226
ACHN = tested on: ACHN
HCT-116 = tested on: HCT-116
UACC-257 = tested on: UACC-257
COLO 205 = tested on: COLO 205
NCI-H522 = tested on: NCI-H522
SK-OV-3 = tested on: SK-OV-3
HOP-92 = tested on: HOP-92

Compound	GI50 (LOX IMVI)	GI50 (IGROV-1)	GI50 (CCRF-CEM)	GI50 (MOLT-4)	GI50 (SF-539)	GI50 (SN12C)	GI50 (SK-MEL-2)	GI50 (SK-MEL-5)	GI50 (K562)	GI50 (Malme-3M)	GI50 (RPMI-8226)	GI50 (ACHN)	GI50 (HCT-116)	GI50 (UACC-257)	GI50 (COLO 205)	GI50 (NCI-H522)	GI50 (SK-OV-3)	GI50 (HOP-92)
Cc1cc(=O)oc2cc(OCCCOc3ccc4c(C)cc(=O)oc4c3)ccc12	> 100 µM (inactive)	> 100 µM (inactive)	> 100 µM (inactive)	> 100 µM (inactive)	> 100 µM (inactive)	> 100 µM (inactive)	> 100 µM (inactive)	> 100 µM (inactive)	> 100 µM (inactive)	> 100 µM (inactive)	> 100 µM (inactive)	> 100 µM (inactive)	> 100 µM (inactive)	> 100 µM (inactive)	> 100 µM (inactive)			
O=C(CCn1[nH]c(=O)c(Cl)c(Cl)c1=O)NNC(=O)C[n+]1ccccc1	> 100 µM (inactive)	> 100 µM (inactive)	> 100 µM (inactive)	> 100 µM (inactive)	> 100 µM (inactive)	> 100 µM (inactive)	> 100 µM (inactive)	> 100 µM (inactive)	> 100 µM (inactive)	> 100 µM (inactive)	> 100 µM (inactive)	> 100 µM (inactive)		> 10 µM (inactive)	> 100 µM (inactive)	> 100 µM (inactive)	> 100 µM (inactive)	
CN(C)CCNC(=O)Cc1ccccc1Nc1c(Cl)cccc1Cl	13.6 µM (inactive)	19.1 µM (inactive)	14.3 µM (inactive)	16 µM (inactive)	16.5 µM (inactive)	15.1 µM (inactive)		15 µM (inactive)	15.3 µM (inactive)		16.6 µM (inactive)	19 µM (inactive)	17.2 µM (inactive)	12.8 µM (inactive)	16.4 µM (inactive)		17.6 µM (inactive)	
COc1ccc(O)c(C#N)c1C#N	< 0.01 µM (active)	> 100 µM (inactive)	> 100 µM (inactive)	> 100 µM (inactive)	> 100 µM (inactive)	> 100 µM (inactive)	> 100 µM (inactive)	> 100 µM (inactive)	> 100 µM (inactive)	> 100 µM (inactive)	> 100 µM (inactive)	> 100 µM (inactive)	> 100 µM (inactive)	> 100 µM (inactive)	> 100 µM (inactive)	> 100 µM (inactive)	> 100 µM (inactive)	
CCOC(=O)N1C2C=C(C)C(ON2C(=O)c2ccccc2)C2C(C)C(=O)N21 (stereo not drawn)	> 100 µM (inactive)	> 100 µM (inactive)	> 100 µM (inactive)	> 100 µM (inactive)	> 100 µM (inactive)	> 100 µM (inactive)	> 100 µM (inactive)	> 100 µM (inactive)	> 100 µM (inactive)	> 100 µM (inactive)	> 100 µM (inactive)	> 100 µM (inactive)	> 100 µM (inactive)	> 100 µM (inactive)	> 100 µM (inactive)		> 100 µM (inactive)	> 100 µM (inactive)
CC1=C(C(=O)Nc2ccc([N+](=O)[O-])cc2)C(c2ccc3c(c2)OCO3)C(C(=O)Nc2ccc([N+](=O)[O-])cc2)=C(C)N1		8.41 µM (inactive)		0.321 µM (active)	27.7 µM (inactive)	38.3 µM (inactive)	6.68 µM (inactive)		4.15 µM (inactive)	23.9 µM (inactive)	5.04 µM (inactive)	10.1 µM (inactive)	10.1 µM (inactive)	5.6 µM (inactive)	4.13 µM (inactive)	24.1 µM (inactive)	> 100 µM (inactive)	4.08 µM (inactive)
Cn1nc(-c2ccccc2)c(C(=O)/C=C/c2ccc(F)cc2)c(N2CCCCC2)c1=O	3.5 µM (inactive)	11.5 µM (inactive)	2.61 µM (inactive)	2.63 µM (inactive)	4.54 µM (inactive)	8.39 µM (inactive)		5.73 µM (inactive)	3.39 µM (inactive)		2.48 µM (inactive)	12.7 µM (inactive)	3.31 µM (inactive)		4.12 µM (inactive)	5.9 µM (inactive)	15 µM (inactive)	3.85 µM (inactive)
COc1ccc(Cc2nc3ccccc3s2)cc1OC		18.9 µM (inactive)	14.8 µM (inactive)	20.2 µM (inactive)	17.3 µM (inactive)	17.1 µM (inactive)	20.3 µM (inactive)	16.1 µM (inactive)	20.3 µM (inactive)	17.1 µM (inactive)	23.7 µM (inactive)	16.8 µM (inactive)	15.8 µM (inactive)	18.1 µM (inactive)	14.6 µM (inactive)	17.8 µM (inactive)	28.2 µM (inactive)	17.7 µM (inactive)
COC(=O)C1CC/C(=N/c2ccc(C)cc2C)N1 (stereo not drawn)	> 100 µM (inactive)	> 100 µM (inactive)	> 100 µM (inactive)	> 100 µM (inactive)		> 100 µM (inactive)	> 100 µM (inactive)	> 100 µM (inactive)	> 100 µM (inactive)	> 100 µM (inactive)	> 100 µM (inactive)	> 100 µM (inactive)	> 100 µM (inactive)	> 100 µM (inactive)	> 100 µM (inactive)	> 100 µM (inactive)	> 100 µM (inactive)	> 100 µM (inactive)
